Data reported in publication PMC4851326, “Pharmacologic Comparison of Clinical Neutral Endopeptidase Inhibitors in a Rat Model of Acute Secretory Diarrhea” (The Journal of Pharmacology and Experimental Therapeutics, 2016).
pIC50: −log10 of the molar value.

Experiments:
aminopeptidase N = target: T1, aminopeptidase N (Homo sapiens, UniProt P15144); assay: Purified peptidase assay, APN; format: biochemical; conditions: recombinant purified human enzyme; for prodrugs the active form was tested
T1 construct: purchased R&D Systems (Minneapolis, MN)
T1 sequence (P15144 whole entry): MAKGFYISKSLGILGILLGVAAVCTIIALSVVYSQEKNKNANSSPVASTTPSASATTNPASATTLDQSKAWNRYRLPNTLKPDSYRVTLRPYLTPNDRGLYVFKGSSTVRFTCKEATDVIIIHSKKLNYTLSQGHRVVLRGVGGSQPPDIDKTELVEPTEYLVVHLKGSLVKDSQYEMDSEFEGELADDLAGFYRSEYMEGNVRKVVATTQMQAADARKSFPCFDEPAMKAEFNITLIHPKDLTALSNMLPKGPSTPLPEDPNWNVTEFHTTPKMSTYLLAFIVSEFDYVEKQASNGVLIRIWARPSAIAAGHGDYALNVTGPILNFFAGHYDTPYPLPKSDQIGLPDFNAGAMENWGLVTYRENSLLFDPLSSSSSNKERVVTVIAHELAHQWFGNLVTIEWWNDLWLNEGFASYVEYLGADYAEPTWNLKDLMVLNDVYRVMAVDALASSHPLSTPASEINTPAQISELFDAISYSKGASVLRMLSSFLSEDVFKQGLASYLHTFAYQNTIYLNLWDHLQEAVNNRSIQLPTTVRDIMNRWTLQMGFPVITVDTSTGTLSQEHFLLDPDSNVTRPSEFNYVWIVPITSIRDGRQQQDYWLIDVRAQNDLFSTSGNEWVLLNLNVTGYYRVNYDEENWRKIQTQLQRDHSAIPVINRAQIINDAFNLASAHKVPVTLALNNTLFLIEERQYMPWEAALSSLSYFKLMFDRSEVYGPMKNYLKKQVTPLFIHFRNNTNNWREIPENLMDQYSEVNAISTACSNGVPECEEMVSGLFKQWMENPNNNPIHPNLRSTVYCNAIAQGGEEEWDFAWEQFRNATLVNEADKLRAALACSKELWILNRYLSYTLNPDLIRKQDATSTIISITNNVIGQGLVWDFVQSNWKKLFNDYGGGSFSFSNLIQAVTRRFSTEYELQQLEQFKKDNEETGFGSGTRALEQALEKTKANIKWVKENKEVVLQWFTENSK
Method: (§1) Purified recombinant human enzymes were purchased from R&D Systems (Minneapolis, MN). […] Each substrate was diluted to 100 μM in the assay buffer recommended for each enzyme by the supplier. […] To these, 5 μl of diluted enzyme was added, followed by 10 μl of the quenched peptide substrate. The plates were incubated at 37°C until at least 10% substrate turnover or 5 μM product had formed. Fluorescence was measured using a Tecan Safire II (Excitation 320 nm/Emission 420 nm). Each plate included a standard curve of reaction product and positive (no enzyme) and negative (dimethyl sulfoxide vehicle) controls. Dose-response data were plotted and inhibition values (IC50) determined by linear regression analysis using GraphPad Prism (GraphPad Software, La Jolla, CA).

NEP = target: T2, NEP (Rattus norvegicus, UniProt P07861); assay: NEP enzyme activity in tissues after oral treatment; format: in vivo; conditions: 5 hours postdose, single oral dose, rats
T2 construct: NEP enzyme activity was measured in tissue homogenates; from tissue; host or cells: Wistar rat kidney, lung, duodenum, jejunum homogenates
T2 sequence (P07861 1-750): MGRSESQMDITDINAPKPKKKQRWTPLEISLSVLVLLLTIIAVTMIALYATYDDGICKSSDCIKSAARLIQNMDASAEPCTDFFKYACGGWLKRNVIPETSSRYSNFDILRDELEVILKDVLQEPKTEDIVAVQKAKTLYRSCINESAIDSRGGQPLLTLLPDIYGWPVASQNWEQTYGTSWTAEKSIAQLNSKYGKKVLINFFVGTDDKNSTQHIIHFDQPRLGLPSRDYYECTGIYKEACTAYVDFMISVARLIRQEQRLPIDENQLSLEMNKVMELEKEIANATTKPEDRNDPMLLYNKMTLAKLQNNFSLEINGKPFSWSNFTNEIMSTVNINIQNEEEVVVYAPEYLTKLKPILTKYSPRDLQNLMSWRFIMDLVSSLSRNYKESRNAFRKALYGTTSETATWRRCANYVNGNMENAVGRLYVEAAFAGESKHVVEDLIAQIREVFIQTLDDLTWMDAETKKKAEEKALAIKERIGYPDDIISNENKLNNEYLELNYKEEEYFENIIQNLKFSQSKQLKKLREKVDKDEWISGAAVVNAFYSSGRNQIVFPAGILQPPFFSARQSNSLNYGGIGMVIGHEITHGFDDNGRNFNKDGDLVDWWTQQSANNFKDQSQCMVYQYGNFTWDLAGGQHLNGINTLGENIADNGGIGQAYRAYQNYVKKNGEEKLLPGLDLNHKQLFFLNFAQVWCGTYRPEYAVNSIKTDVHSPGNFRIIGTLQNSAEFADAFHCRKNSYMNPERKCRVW
Method: Four or five 2-mm Zirconia beads (Biospec, Bartlesville, OK) were added to fresh weighed tissue specimens (50–250 mg). Assay buffer consisting of 50 mM Tris-HCl (pH 7.4), 200 mM NaCl, and 0.05% TritonX-100 was added (4 μl/mg), and the sample was homogenized for 1 minute using a bead beater (Biospec). Stored frozen homogenates were thawed at room temperature and centrifuged 10 minutes at 18,000g, and the protein concentration was determined for each supernatant. […] NEP substrate 2Abz-dArg-Gly-Leu-C2-Dnp (American Peptide, Sunnyvale, CA) was prepared at 1 mM in 20% acetonitrile/water and diluted to 100 μM in assay buffer, and 10 μl was dispensed to homogenate-containing wells. […] Kinetic data were plotted to determine the rate of product formation by linear regression with interpolation against a standard curve, and the rate was normalized to protein concentration.

ECE-1 = target: T3, ECE-1 (Homo sapiens, UniProt P42892); assay: biochemical; conditions: recombinant purified human enzyme; for prodrugs the active form was tested
T3 construct: purchased R&D Systems (Minneapolis, MN)
T3 sequence (P42892 1-770): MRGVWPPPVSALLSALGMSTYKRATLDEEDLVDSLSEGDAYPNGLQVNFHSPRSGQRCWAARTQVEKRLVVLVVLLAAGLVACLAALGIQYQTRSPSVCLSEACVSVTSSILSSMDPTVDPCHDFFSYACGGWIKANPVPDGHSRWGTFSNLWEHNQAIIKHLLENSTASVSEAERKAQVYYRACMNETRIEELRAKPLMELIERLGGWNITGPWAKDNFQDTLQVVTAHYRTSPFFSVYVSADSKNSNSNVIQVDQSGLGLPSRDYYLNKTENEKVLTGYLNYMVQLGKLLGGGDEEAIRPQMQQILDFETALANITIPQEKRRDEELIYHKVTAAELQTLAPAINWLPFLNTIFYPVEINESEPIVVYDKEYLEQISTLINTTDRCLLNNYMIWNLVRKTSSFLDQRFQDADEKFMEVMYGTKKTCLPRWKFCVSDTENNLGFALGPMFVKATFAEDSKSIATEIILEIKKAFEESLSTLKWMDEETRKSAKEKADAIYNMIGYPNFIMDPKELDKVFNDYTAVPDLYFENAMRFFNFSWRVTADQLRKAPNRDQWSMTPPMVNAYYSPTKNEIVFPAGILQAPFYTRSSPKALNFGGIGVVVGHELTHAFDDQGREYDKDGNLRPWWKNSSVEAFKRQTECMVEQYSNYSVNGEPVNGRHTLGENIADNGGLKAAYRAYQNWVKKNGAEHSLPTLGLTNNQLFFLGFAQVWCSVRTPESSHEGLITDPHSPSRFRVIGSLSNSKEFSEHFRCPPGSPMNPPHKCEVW
Method: as §1

- pIC50 (aminopeptidase N): < 4.00
- Inhibition of NEP in the intestinal segments (NEP): > 92%
- Inhibition of NEP in the intestinal segments (NEP; listed as UK-505,797): ≥ 97%
- pIC50 (ECE-1): 5.48
Compound: Cc1nc2ccc(CCCNC(=O)C3(C[C@@H](C)C(=O)O)CCCC3)cc2s1 [UK-505,749, (R)-2-methyl-3-(1-((3-(2-methylbenzo[d]thiazol-6-yl)propyl)carbamoyl)cyclopentyl)propanoic acid]
